Experimental data: PMC5524711 (Scientific Reports, 2017)
Where two headings read alike, the source gives them in different places.

Key:
α1β2γ2 GABAA receptors = target: T1, α1β2γ2 GABAA receptors (UniProt P18508+P47870+P62813); assay: Xenopus oocyte two-electrode voltage clamp; format: cell-based, rat and human
T1 construct: expressed in transfected cells; host or cells: Xenopus laevis oocytes (cRNA injection)

[1] = target: GABAA receptors (washed rat brain membranes); assay: Displacement of [3H]muscimol binding (PDSP); conditions: 5 nM [3H]muscimol
Protocol: Rat brain membranes were prepared as described in the Protocol Manual on the PDSP website (https://pdspdb.unc.edu/pdspWeb/). […] The final concentration of [^3H]muscimol in the assay mixture was 5 nM. […] Analysis of ligand binding data.

[2] = target: GABAA receptors, benzodiazepine site (washed rat brain membranes); assay: [3H]Flunitrazepam binding and displacement; conditions: read-out: [3H]Flunitrazepam Binding, displacement, 1 nM [3H]flunitrazepam, 10 µM GABA
Protocol: Membrane Preparation. These experiments were performed at the University of Colorado Health Sciences Center, Denver, CO. Experiments were approved by the Institutional Animal Care and Use Committee (IACUC) of the University of Colorado, Denver, and were performed in accordance with the NIH Guide for the Care and Use of Laboratory Animals. Male Sprague-Dawley rats (200–250 g) were maintained in an AAALAC-accredited facility and sacrificed by CO2 exposure and decapitation. Brains were removed, and membranes were prepared from the forebrain as described previously. Ligand binding assay. […] Bound and free ligand were separated by rapid filtration under vacuum over Whatman GF/B filters presoaked in buffer in a 24 port Brandel Cell Harvester. Filters were washed with 2 × 5 ml of ice-cold HEPES buffer and dried prior to measurement of bound radioactivity by scintillation counting (Beckman LS3800 scintillation counter) using Ultima Gold XR scintillation cocktail. Analysis of ligand binding data.

[3] = target: T2, α1β2(N265S)γ2 GABAA receptors (UniProt P18508+P47870+P62813, N289S); parameters: method as in PMID 19741491; conditions: concentrations up to 1 mM; cited from earlier work
T2 construct: expressed in transfected cells; host or cells: Xenopus laevis oocytes (cRNA injection)

α1β2 GABAA receptors = target: T3, α1β2 GABAA receptors (UniProt P47870+P62813); assay: Xenopus oocyte two-electrode voltage clamp; format: cell-based, rat and human; conditions: a1b2
T3 construct: expressed in transfected cells; host or cells: Xenopus laevis oocytes (cRNA injection)

α1β3 GABAA receptors = target: T4, α1β3 GABAA receptors (Rattus norvegicus, UniProt P62813+P63079); assay: Xenopus oocyte two-electrode voltage clamp; format: cell-based; conditions: a1b3
T4 construct: expressed in transfected cells; host or cells: Xenopus laevis oocytes (cRNA injection)

α5β3 GABAA receptors = target: T5, α5β3 GABAA receptors (UniProt P31644+P63079); assay: Xenopus oocyte two-electrode voltage clamp; format: cell-based, rat; conditions: a5b3
T5 construct: expressed in transfected cells; host or cells: Xenopus laevis oocytes (cRNA injection)

α1β1γ2 GABAA receptors = target: T6, α1β1γ2 GABAA receptors (Rattus norvegicus, UniProt P15431+P18508+P62813); assay: Xenopus oocyte two-electrode voltage clamp; format: cell-based; conditions: a1b1g2
T6 construct: expressed in transfected cells; host or cells: Xenopus laevis oocytes (cRNA injection)

[4] = target: T2, α1β2(N265S)γ2 GABAA receptors; assay: Xenopus oocyte two-electrode voltage clamp; format: cell-based, rat and human; conditions: a1b2(N265S)g2
α1β2γ1 GABAA receptors = target: T7, α1β2γ1 GABAA receptors (UniProt P47870+P62813+Q8N1C3); assay: Xenopus oocyte two-electrode voltage clamp; format: cell-based, rat and human; conditions: a1b2g1
T7 construct: expressed in transfected cells; host or cells: Xenopus laevis oocytes (cRNA injection); γ1 cDNA synthesized by GenScript in pGEMHE

α1β3γ2 GABAA receptors = target: T8, α1β3γ2 GABAA receptors (Rattus norvegicus, UniProt P18508+P62813+P63079); assay: Xenopus oocyte two-electrode voltage clamp; format: cell-based; conditions: a1b3g2
T8 construct: expressed in transfected cells; host or cells: Xenopus laevis oocytes (cRNA injection)

α5β3γ2 GABAA receptors = target: T9, α5β3γ2 GABAA receptors (UniProt P18508+P31644+P63079); assay: Xenopus oocyte two-electrode voltage clamp; format: cell-based, rat; conditions: a5b3g2
T9 construct: expressed in transfected cells; host or cells: Xenopus laevis oocytes (cRNA injection)

α1β3δ GABAA receptors = target: T10, α1β3δ GABAA receptors (Rattus norvegicus, UniProt P18506+P62813+P63079); assay: Xenopus oocyte two-electrode voltage clamp; format: cell-based; conditions: a1b3d
T10 construct: expressed in transfected cells; host or cells: Xenopus laevis oocytes (cRNA injection)

α4β3γ2 GABAA receptors [5] = target: T11, α4β3γ2 GABAA receptors (UniProt P18508+P48169+P63079); parameters: method as in Borghese et al., 2006; conditions: a4b3g2; ref Borghese et al., 2006; cited from earlier work
T11 construct: expressed in transfected cells; host or cells: Xenopus laevis oocytes (cRNA injection)

α4β3δ GABAA receptors [6] = target: T12, α4β3δ GABAA receptors (UniProt P18506+P48169+P63079); parameters: method as in Borghese et al., 2006; conditions: a4b3d; ref Borghese et al., 2006; cited from earlier work
T12 construct: expressed in transfected cells; host or cells: Xenopus laevis oocytes (cRNA injection)

α4β3γ2 GABAA receptors [7] = target: T11, α4β3γ2 GABAA receptors; assay: Xenopus oocyte two-electrode voltage clamp; format: cell-based, rat; conditions: a4b3g2; [Zn++] 1 µM
α4β3δ GABAA receptors [8] = target: T12, α4β3δ GABAA receptors; assay: Xenopus oocyte two-electrode voltage clamp; format: cell-based, rat; conditions: a4b3d; [Zn++] 1 µM
medial CeA neurons = assay: Brain slice whole cell patch clamp recording; format: cell-based, rat; conditions: 100 μM, focally applied following DCUK-OEt (0.5 µM)
Protocol: Slices were prepared from brains of 5 adult male Wistar rats (250–350 g) as described by Herman et al.[56]. A single slice was transferred to a recording chamber mounted on the stage of an upright microscope (Olympus BX50WI).
Neurons were visualized and whole cell patch clamp recordings were made as previously described[56]. Series resistance was typically <15 MΩ and was continuously monitored with a hyperpolarizing 10 mV pulse. Electrophysiological properties of cells were determined by pClamp 10 Clampex software online during voltage-clamp recording using a 5 mV pulse delivered after breaking into the cell. The resting membrane potential was determined online after breaking into the cell using the zero current (I = 0) recording configuration and the liquid junction potential was included in the determination. […]
Frequency, amplitude and decay of spontaneous inhibitory postsynaptic currents (sIPSCs) were analyzed and visually confirmed using a semi-automated threshold based mini detection software (Mini Analysis, Synaptosoft Inc.). Averages of sIPSC characteristics were determined from baseline and experimental drug conditions containing a minimum of 60 events (time period of analysis varied as a product of individual event frequency) and decay kinetics were determined using exponential curve fittings and reported as decay time (ms). […]

T2 sequence (P62813 28-455): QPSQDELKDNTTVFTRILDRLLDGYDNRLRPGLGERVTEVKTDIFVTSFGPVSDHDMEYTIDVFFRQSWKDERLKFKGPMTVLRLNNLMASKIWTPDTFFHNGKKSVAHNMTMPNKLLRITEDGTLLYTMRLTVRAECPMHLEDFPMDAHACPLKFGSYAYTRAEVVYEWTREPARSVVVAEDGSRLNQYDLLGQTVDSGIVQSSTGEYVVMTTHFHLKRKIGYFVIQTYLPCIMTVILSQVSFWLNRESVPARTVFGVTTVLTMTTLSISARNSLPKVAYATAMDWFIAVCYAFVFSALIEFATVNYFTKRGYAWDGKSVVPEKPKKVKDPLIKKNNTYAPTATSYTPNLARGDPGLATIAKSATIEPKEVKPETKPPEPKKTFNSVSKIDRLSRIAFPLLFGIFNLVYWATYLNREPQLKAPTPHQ
T2 sequence (P47870 25-474 isoform P47870-1 N289S limits assumed): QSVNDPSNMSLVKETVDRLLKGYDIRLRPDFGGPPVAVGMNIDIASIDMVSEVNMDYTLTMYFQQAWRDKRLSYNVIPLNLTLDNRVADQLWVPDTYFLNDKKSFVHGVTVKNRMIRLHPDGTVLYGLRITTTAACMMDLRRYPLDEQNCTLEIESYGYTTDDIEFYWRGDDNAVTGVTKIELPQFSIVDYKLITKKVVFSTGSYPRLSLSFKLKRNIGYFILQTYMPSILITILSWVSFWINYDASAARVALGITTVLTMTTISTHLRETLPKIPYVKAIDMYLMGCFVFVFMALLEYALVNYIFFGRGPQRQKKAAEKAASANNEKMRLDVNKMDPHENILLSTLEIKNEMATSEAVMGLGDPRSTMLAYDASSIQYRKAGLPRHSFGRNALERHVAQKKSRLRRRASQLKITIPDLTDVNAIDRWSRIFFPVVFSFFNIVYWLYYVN
T2 sequence (P18508 39-466): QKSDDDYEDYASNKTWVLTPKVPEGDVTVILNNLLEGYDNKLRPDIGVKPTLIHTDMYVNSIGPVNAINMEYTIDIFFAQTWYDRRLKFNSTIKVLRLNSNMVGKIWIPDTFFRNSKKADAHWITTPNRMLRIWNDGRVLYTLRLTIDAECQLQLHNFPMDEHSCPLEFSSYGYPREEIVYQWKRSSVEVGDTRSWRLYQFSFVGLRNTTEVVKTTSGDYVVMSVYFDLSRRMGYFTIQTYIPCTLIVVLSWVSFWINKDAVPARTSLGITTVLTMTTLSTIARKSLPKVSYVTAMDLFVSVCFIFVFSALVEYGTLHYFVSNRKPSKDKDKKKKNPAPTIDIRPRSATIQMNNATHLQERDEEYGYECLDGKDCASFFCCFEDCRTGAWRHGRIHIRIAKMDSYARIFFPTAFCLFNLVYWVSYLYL
T1 sequence (P62813 28-455): as the sequence (P62813 28-455) above
T1 sequence (P47870 26-474 isoform P47870-1 limits assumed): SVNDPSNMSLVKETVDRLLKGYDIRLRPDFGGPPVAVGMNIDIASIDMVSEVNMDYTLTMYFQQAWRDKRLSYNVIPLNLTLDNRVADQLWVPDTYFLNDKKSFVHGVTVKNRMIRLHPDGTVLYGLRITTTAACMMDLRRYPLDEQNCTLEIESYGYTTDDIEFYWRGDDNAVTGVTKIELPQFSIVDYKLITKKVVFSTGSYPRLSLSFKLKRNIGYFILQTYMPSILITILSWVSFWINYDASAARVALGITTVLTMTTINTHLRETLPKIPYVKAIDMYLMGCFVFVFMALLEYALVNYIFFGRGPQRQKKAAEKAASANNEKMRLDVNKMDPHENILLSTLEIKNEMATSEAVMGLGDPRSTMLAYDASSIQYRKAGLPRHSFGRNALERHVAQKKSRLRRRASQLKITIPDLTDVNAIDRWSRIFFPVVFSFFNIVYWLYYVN
T1 sequence (P18508 39-466): as the sequence (P18508 39-466) above
T11 sequence (P48169 36-554): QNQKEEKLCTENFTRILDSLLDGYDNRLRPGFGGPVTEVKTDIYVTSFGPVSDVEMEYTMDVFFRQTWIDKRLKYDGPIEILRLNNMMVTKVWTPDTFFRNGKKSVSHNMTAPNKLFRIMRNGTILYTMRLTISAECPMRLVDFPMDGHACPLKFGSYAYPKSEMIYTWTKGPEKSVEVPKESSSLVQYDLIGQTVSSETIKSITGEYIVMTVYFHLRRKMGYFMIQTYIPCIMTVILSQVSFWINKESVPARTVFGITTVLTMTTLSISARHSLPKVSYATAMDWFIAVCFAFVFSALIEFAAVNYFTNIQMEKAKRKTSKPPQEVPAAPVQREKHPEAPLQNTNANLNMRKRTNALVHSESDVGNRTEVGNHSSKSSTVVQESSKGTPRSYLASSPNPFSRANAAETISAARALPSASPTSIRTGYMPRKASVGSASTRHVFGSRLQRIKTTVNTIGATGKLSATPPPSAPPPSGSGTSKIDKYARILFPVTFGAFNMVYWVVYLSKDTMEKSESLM
T11 sequence (P63079 26-473): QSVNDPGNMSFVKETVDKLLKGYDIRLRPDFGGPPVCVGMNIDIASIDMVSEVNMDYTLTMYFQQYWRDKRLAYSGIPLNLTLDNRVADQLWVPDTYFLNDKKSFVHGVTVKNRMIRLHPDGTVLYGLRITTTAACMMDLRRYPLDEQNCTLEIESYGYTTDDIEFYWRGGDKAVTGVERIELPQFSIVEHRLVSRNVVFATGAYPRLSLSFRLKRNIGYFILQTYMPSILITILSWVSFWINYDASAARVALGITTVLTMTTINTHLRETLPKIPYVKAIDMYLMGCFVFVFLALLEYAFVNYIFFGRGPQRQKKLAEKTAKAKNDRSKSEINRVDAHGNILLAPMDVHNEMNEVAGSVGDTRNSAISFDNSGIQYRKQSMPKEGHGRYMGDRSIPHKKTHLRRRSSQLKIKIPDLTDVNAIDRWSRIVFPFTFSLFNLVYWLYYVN
T11 sequence (P18508 39-466): as the sequence (P18508 39-466) above
T12 sequence (P48169 36-554): as the sequence (P48169 36-554) above
T12 sequence (P63079 26-473): as the sequence (P63079 26-473) above
T12 sequence (P18506 17-449 limits assumed): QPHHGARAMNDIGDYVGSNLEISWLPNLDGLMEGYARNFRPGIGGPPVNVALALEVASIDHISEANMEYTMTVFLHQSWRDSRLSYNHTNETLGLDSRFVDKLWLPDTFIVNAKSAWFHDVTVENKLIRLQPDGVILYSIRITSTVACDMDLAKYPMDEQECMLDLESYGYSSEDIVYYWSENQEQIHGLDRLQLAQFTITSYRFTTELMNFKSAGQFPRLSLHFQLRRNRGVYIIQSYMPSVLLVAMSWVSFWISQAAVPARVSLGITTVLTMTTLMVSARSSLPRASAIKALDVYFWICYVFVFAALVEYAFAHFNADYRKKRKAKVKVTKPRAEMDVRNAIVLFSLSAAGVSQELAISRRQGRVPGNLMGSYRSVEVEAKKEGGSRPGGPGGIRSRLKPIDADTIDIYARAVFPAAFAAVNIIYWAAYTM
T5 sequence (P31644 32-462): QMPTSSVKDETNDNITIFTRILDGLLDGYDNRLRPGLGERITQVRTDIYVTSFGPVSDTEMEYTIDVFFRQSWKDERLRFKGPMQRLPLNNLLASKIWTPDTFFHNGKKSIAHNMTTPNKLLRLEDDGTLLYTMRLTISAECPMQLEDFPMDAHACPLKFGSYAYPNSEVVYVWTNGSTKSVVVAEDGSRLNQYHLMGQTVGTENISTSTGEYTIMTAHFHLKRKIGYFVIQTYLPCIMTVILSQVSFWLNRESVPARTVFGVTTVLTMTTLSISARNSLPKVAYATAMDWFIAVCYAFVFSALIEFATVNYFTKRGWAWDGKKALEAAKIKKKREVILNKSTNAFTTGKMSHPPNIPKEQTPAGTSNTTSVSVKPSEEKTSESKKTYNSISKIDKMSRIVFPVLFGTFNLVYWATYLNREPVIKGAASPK
T5 sequence (P63079 26-473): as the sequence (P63079 26-473) above
T9 sequence (P31644 32-462): as the sequence (P31644 32-462) above
T9 sequence (P63079 26-473): as the sequence (P63079 26-473) above
T9 sequence (P18508 39-466): as the sequence (P18508 39-466) above
T8 sequence (P62813 28-455): as the sequence (P62813 28-455) above
T8 sequence (P63079 26-473): as the sequence (P63079 26-473) above
T8 sequence (P18508 39-466): as the sequence (P18508 39-466) above
T4 sequence (P62813 28-455): as the sequence (P62813 28-455) above
T4 sequence (P63079 26-473): as the sequence (P63079 26-473) above
T6 sequence (P62813 28-455): as the sequence (P62813 28-455) above
T6 sequence (P15431 26-474): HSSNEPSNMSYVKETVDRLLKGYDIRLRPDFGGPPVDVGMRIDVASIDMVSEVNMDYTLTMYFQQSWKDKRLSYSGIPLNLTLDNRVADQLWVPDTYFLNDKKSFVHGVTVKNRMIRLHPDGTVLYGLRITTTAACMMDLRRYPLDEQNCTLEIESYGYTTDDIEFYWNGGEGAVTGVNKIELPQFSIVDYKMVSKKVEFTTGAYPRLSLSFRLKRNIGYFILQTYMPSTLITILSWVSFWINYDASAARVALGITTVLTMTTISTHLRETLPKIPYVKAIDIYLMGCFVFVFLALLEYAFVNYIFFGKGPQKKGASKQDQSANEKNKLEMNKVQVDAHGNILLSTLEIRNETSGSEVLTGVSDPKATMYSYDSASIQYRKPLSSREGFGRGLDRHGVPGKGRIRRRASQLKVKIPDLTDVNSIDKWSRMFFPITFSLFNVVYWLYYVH
T6 sequence (P18508 39-466): as the sequence (P18508 39-466) above
T3 sequence (P62813 28-455): as the sequence (P62813 28-455) above
T3 sequence (P47870 26-474 isoform P47870-1 limits assumed): as the sequence (P47870 26-474 isoform P47870-1 limits assumed) above

C[C@]12CC[C@@H](O)C[C@@H]1CC[C@@H]1[C@@H]2CC[C@]2(C)C(c3ccccc3)=CC[C@@H]12 [Compound 17PA, 17-phenyl-(3α,5α)-androst-16-en-3-ol]
inhibition at 10 µM (α1β2γ2 GABAA receptors; read-out: Inhibition by 17PA of DCUK-OEt potentiation of GABA actions): 35%
inhibition at 10 µM (α1β2γ2 GABAA receptors; read-out: Inhibition by 17PA of the potentiating effects of allopregnanolone on GABA-induced currents): 56%

O=C(O)c1cc(NC(=O)N(c2ccccc2)c2ccccc2)c2c(Cl)cc(Cl)cc2n1 [DCUKA, 5,7 dichloro-4-([diphenylcarbamoyl]amino) quinoline-2-carboxylic acid]
Ki [1]: 6.6 ± 1.9 µM
Ki [2]: > 10 µM
Effect of co-applied flumazenil on DCUK actions on α1β2γ2 GABAA receptors (α1β2γ2 GABAA receptors; 20 μM flumazenil, EC10 GABA): did not significantly affect
Effect on submaximal GABA (EC10) currents (α1β2γ2 GABAA receptors; oocytes containing α1β2γ2 GABAA receptors): enhanced

CCOC(=O)c1cncn1[C@H](C)c1ccccc1 [Etomidate, etomidate]
GABA potentiating effect at α1β2(N265S)γ2 [3]: no GABA potentiating effect

NCCCC(=O)O [GABA, γ-aminobutyric acid]
nH (Hill coefficient of GABA concentration-response curve) (α1β2 GABAA receptors): 1.19 ± 0.08
nH (Hill coefficient of GABA concentration-response curve) (α1β3 GABAA receptors): 0.97 ± 0.06
nH (Hill coefficient of GABA concentration-response curve) (α5β3 GABAA receptors): 0.93 ± 0.07
nH (Hill coefficient of GABA concentration-response curve) (α1β1γ2 GABAA receptors): 0.76 ± 0.07
nH (Hill coefficient of GABA concentration-response curve) (α1β2γ2 GABAA receptors; a1b2g2): 0.99 ± 0.03
nH (Hill coefficient of GABA concentration-response curve) [4]: 0.81 ± 0.06
nH (Hill coefficient of GABA concentration-response curve) (α1β2γ1 GABAA receptors): 0.87 ± 0.06
nH (Hill coefficient of GABA concentration-response curve) (α1β3γ2 GABAA receptors): 1.33 ± 0.08
nH (Hill coefficient of GABA concentration-response curve) (α5β3γ2 GABAA receptors): 0.93 ± 0.04
nH (Hill coefficient of GABA concentration-response curve) (α1β3δ GABAA receptors): 0.78 ± 0.07
nH (Hill coefficient of GABA concentration-response curve) (α4β3γ2 GABAA receptors [5]): 1.01 ± 0.09
nH (Hill coefficient of GABA concentration-response curve) (α4β3δ GABAA receptors [6]): 0.84 ± 0.07

[Zn+2] [Zn++]
% change of EC10 GABA responses by Zn++ (α1β2 GABAA receptors; [Zn++] 10 µM): -99 ± 1%
% change of EC10 GABA responses by Zn++ (α1β3 GABAA receptors; [Zn++] 1 µM): -85 ± 3%
% change of EC10 GABA responses by Zn++ (α5β3 GABAA receptors; [Zn++] 10 µM): -89 ± 2%
% change of EC10 GABA responses by Zn++ (α1β1γ2 GABAA receptors; [Zn++] 100 µM): 21 ± 3%
% change of EC10 GABA responses by Zn++ (α1β2γ2 GABAA receptors; a1b2g2, [Zn++] 10 µM): -9 ± 4%
% change of EC10 GABA responses by Zn++ ([4]; [Zn++] 10 µM): 10 ± 2%
% change of EC10 GABA responses by Zn++ (α1β2γ1 GABAA receptors; [Zn++] 10 µM): 0.4 ± 1.4%
% change of EC10 GABA responses by Zn++ (α1β3γ2 GABAA receptors; [Zn++] 10 µM): -19 ± 4%
% change of EC10 GABA responses by Zn++ (α4β3γ2 GABAA receptors [7]): -43 ± 4%
% change of EC10 GABA responses by Zn++ (α5β3γ2 GABAA receptors; [Zn++] 10 µM): -29 ± 6%
% change of EC10 GABA responses by Zn++ (α1β3δ GABAA receptors; [Zn++] 1 µM): -35 ± 1%
% change of EC10 GABA responses by Zn++ (α4β3δ GABAA receptors [8]): -31 ± 6%

CCOC(=O)c1ncn2c1CN(C)C(=O)c1cc(F)ccc1-2 [flumazenil]
Potentiation of EC10 GABA responses (α1β2γ2 GABAA receptors): 51 ± 2%

COc1ccc(-c2ccc(=N)n(CCCC(=O)O)n2)cc1 [gabazine]
Holding current when applied after DCUK-OEt (medial CeA neurons): significant reduction in holding current
